The values that follow come from patent publication US8921373B2, “Compounds having TRPV1 antagonistic activity and uses thereof” (Shionogi & Co., Ltd., priority 2010, dated 2014).

Experiment [1] addresses T1, human recombinant TRPV1 (Homo sapiens (Human), UniProt Q8NER1). In words: TRPV1 pH-Based Assay (Protocol 2, Ca2+ response in TRPV1/CHO cells, Fura-2). The experiment is classed as cell-based. How it is done: (§1) For Protocol 2, a Chinese Hamster Ovary cell line (CHO) that has been engineered to constitutively express human recombinant TRPV1 was used (TRPV1/CHO cells). The TRPV1/CHO cell line was generated as described below.
TRPV1/CHO cells were seeded in the 96-well clear-bottom black-wall plate (Nunc) at densities of 1-2×10^4 cells/well and grown in 100 μL of culture medium (alpha-MEM supplemented with 10% FBS, 20 mM HEPES, 1 mg/mL geneticin and 1% antibiotic-antimycotic mixed stock solution) for 1-2 days before the experiment.
(2) The 96-well plate was incubated at 37° C. for 45 min.
(3) The loading buffer was removed from each well. […] The wells were then refilled with 80 μL of measuring buffer.
(4) After an incubation at 4° C. for 15 min, the 96-well plate was transferred to FDSS-3000 (Hamamatsu Photonics, Japan).
(5) The Fura-2 fluorescent intensity was monitored at a wavelength of 340 nm and at 380 nm, respectively, at a rate of 0.5 Hz for a total of 240 seconds. After 16 time points (32 sec) of baseline detection, 20 μL of agonist solution was added to each well. The final volume was 100 μL/well.
(6) Fluorescence intensity ratio refers to the fluorescence intensity at 340 nm over the fluorescence intensity at 380 nm at a particular time point. The baseline was set as the average of the fluorescent intensity ratios for the first 16 time points before the addition of agonist solution. The maximum response was the highest fluorescent intensity ratio during the 60 time points following addition of agonist solution.
(7) Maximal signal ratios from each well were calculated as output data using the FDSS-3000 analysis program. Data were analyzed using Excel (Microsoft) and XLfit (idbs) software.
Two different agonist solutions with different H2SO4 concentrations were used for the pH assay (FIG. 3A). For one half of a 96-well plate one agonist solution was used, for the other half the other agonist solution. The agonist solutions were obtained by diluting sulfuric acid (H2SO4, 1M) with measuring buffer. The concentrations for the two agonist solutions were determined as described above in Section 2 of Protocol 2.
The sulfuric acid concentrations between the two agonist solutions differed by 0.5 mM. […] After 1:4 dilution of the agonist solutions, the final sulfuric acid concentration was 3.2 mM and 3.3 mM, respectively. The resulting pH value for the pH assay was 5.0 to 5.1.
Test compounds were dissolved in DMSO to yield 1 mM stock solutions. […] The thereby-obtained solutions were further diluted in measuring buffer (1:100) as 10× stock serial dilutions with a DMSO concentration of 1%. 10 μL of a 10× stock was added into each well at step 3.3.(4) of Protocol 2.
Steps (1) and (2) of this Assay were the same as steps 2.2.(1) and 2.2.(2) of Protocol 2, respectively.
(3) The cells were washed twice with 150 μL of measuring buffer (mentioned in 2.2.(3) of Protocol 2, no probenecid). The wells were subsequently refilled with 70 μL of measuring buffer.
(4) Either 10 μl of measuring buffer or 10 μL of 10× stock serial dilution of test compound (described in 3.2. above) were applied to each well. Usually, only one test compound was tested per 96-well plate. The number of replicates per 96-well plate for a particular antagonist at a particular concentration was 7×2 since two different sulfuric acid concentrations were used per 96-well plate (N=7×2) (FIG. 3).
Step (5) was the same as 2.2.(4) above.
(6) Fura-2 fluorescent intensity was monitored as described in 2.2.(5) above. After 16 time points of baseline detection, 20 μL of agonist solution (measuring buffer titrated with H2SO4 to yield pH 5.0-5.1 when mixed 1:4 with the measuring buffer containing test compound) was added to each well (final volume 100 μL/well).
Steps (7) and (8) were as described in 2.2.(6) and 2.2.(7) above, respectively.
(1) The pH values of the buffer in the wells of A1→H1 and A7→H7 (longitudinally; FIG. 3) were measured one by one using a portable pH meter.

The target of experiment [2] is T1, human recombinant TRPV1. The experiment in a line: TRPV1 Capsaicin-Based Assay (Protocol 2, TRPV1/CHO cells, Fluo-4, FLIPR). It counts as cell-based. The method, then: as §1
One day prior to assay, TRPV1/CHO cells were seeded in 96-well clear-bottom black plates (20,000 cells/well) in growth media. On the day of the experiment, the cells were washed with 0.2 mL 1× Hank's Balanced Salt Solution (Life Technologies) containing 1.6 mM CaCl2 and 20 mM HEPES, pH 7.4 (“wash buffer”). Subsequently, the cells were loaded by incubation in 0.1 mL of wash buffer containing Fluo-4 at 3 μM final concentration. After 1 hour, the cells were washed twice with 0.2 mL wash buffer and resuspended in 0.1 mL wash buffer. The plates were then transferred to a Fluorescence Imaging Plate Reader (Molecular Devices). Fluorescence intensity was monitored for 15 seconds to establish a baseline. Subsequently, test compounds diluted in assay buffer (1× Hank's Balanced Salt Solution containing 1 mM CaCl2 and 20 mM HEPES, pH 7.4) containing 1% DMSO were added to the cell plate and fluorescence was monitored for 2 minutes. […] Human TRPV1 was then activated by the addition of 50 μL capsaicin (100 nM final concentration) and plates incubated for an additional 3 min. Data were collected over the entire time course and analyzed using Excel and the curve-fitting formula GraphPad Prism.

The mark [3] stands for this setting: TRPV1/CHO cells, pH 5.0-5.1, read-out: IC50 value by the pH-Based Assay.
Setting [4] is: TRPV1/CHO cells, capsaicin 100 nM final, read-out: IC50 value by the Capsaicin-Based Assay.
Where [5] appears, read: TRPV1/CHO cells, capsaicin 100 nM final, compounds of the invention, read-out: TRPV1 IC50 Potency (Capsaicin-Based Assay), Compound IC50.

A value given as a limit tells only on which side of the number the result lay.

T1 sequence (Q8NER1 whole entry): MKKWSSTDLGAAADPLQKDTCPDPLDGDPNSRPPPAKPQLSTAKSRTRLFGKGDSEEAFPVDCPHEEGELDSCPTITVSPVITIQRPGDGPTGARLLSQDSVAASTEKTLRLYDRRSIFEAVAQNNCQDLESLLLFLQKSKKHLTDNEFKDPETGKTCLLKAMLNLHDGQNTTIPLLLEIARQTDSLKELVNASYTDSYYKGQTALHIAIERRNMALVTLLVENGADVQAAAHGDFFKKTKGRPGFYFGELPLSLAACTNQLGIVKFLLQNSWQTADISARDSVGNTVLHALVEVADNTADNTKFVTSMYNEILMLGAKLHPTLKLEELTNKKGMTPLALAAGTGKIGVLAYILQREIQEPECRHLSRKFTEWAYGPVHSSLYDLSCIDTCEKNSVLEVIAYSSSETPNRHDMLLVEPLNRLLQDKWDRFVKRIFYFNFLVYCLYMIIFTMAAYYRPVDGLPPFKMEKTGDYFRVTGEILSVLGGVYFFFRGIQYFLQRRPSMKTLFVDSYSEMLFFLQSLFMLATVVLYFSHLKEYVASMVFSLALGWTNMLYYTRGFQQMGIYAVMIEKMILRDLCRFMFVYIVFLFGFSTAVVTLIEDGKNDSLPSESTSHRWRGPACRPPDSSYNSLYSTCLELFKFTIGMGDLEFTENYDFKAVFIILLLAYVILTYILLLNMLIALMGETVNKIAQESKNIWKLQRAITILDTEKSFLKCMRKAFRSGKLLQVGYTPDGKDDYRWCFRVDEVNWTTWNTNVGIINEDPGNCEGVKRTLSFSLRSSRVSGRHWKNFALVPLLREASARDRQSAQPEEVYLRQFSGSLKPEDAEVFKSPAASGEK

As usually defined, the IC50 is the concentration that inhibits the measured activity by half. `O=C(Nc1nc2cc(F)c(F)cc2s1)N1CCN(c2ncc(C[C@H](O)CO)cc2F)CC1` [AFB]: the IC50 in experiment [1] and in experiment [2] was ≤ 50 nM in each case.
In the case of `Cc1ccc2nc(NC(=O)N3CCN(c4ncc(C[C@@H](O)CO)cc4Cl)C[C@@H]3C)sc2c1` [ADZ], the IC50 in experiment [1] (setting [3]) and in experiment [2] (setting [4]) was ≤ 50 nM throughout.
On to `Cc1cc(NC(=O)N2CCC(F)(c3ncccc3F)CC2)ccc1OC(F)(F)F` [reference compound], for which the IC50 in experiment [2] (TRPV1/CHO cells, capsaicin 100 nM final, comparative compounds, read-out: TRPV1 IC50 Potency (Capsaicin-Based Assay), Comparative compound IC50) was determined as 100 nM.
For the compound `C[C@H]1CN(C(=O)Nc2nc3cc(F)c(F)cc3s2)CCN1c1ncc(C[C@@H](O)CO)cc1F` [AFS], the IC50 in experiment [1] (setting [3]) and in experiment [2] (setting [4]) was ≤ 50 nM in each case.
For the compound `Cc1cc(NC(=O)N2CCC(F)(c3ncc(C[C@H](O)CO)cc3Cl)CC2)ccc1C(F)(F)F` [ACS, (S)-4-(3-Chloro-5-(2,3-dihydroxypropyl)pyridin-2-yl)-4-fluoro-N-(3-methyl-4-(trifluoromethyl)phenyl)piperidine-1-carboxamide], the IC50 in experiment [1] (setting [3]) and in experiment [2] (setting [4]) was ≤ 50 nM throughout.
For `Cc1cc(NC(=O)N2CCC(F)(c3ncc(C[C@@H](O)CO)cc3Cl)CC2)ccc1C(F)(F)F` [ACI, (R)-4-(3-Chloro-5-(2,3-dihydroxypropyl)pyridin-2-yl)-4-fluoro-N-(3-methyl-4-(trifluoromethyl)phenyl)piperidine-1-carboxamide], the IC50 in experiment [1] (setting [3]) and in experiment [2] (setting [4]) was ≤ 50 nM each time.
Turning to `Cc1cc(NC(=O)N2CCC(F)(c3ncc(C[C@H](O)CO)cc3Cl)CC2)ccc1OC(F)(F)F` [ACT, (S)-4-(3-Chloro-5-(2,3-dihydroxypropyl)pyridin-2-yl)-4-fluoro-N-(3-methyl-4-(trifluoromethoxy)phenyl)piperidine-1-carboxamide], the IC50 in experiment [1] (setting [3]) and in experiment [2] (setting [4]) was ≤ 50 nM each time.
For the compound `O=C(Nc1nc2ccc(F)cc2s1)N1CCC(F)(c2ncc(C[C@H](O)CO)cc2Cl)CC1`, in experiment [2] (setting [5]), the IC50 is 116 nM.
Regarding `C[C@H]1CN(c2ncc(C[C@@H](O)CO)cc2Cl)CCN1C(=O)Nc1nc2ccccc2s1` [AEA], the half-inhibitory concentration (IC50) in experiment [1] (setting [3]) and in experiment [2] (setting [4]) was ≤ 50 nM in each case.
Consider `Cc1cc(NC(=O)N2CCC(F)(c3ncc(C[C@@H](O)CO)cc3C)CC2)ccc1C(F)(F)F` [ACE, (R)-4-(5-(2,3-dihydroxypropyl)-3-methylpyridin-2-yl)-4-fluoro-N-(3-methyl-4-(trifluoromethyl)phenyl)piperidine-1-carboxamide], for which the IC50 in experiment [1] (setting [3]) and in experiment [2] (setting [4]) was ≤ 50 nM each time.
Regarding `C[C@@H]1CN(c2ncc(C[C@@H](O)CO)cc2F)CCN1C(=O)Nc1nc2ccc(F)cc2s1` [ADH, (R)-4-(5-[(R)-2,3-dihydroxypropyl)-3-fluoropyridin-2-yl)-N-(6-fluorobenzo[d]thiazol-2-yl]-2-methylpiperazine-1-carboxamide], the half-maximal inhibitory concentration (IC50) in experiment [1] (setting [3]) and in experiment [2] (setting [4]) was ≤ 50 nM in each case.
Consider `C[C@H]1CN(c2ncc(C[C@@H](O)CO)cc2Cl)CCN1C(=O)Nc1nc2ccc(Cl)cc2s1` [AEE], for which the IC50 in experiment [1] (setting [3]) and in experiment [2] (setting [4]) was ≤ 50 nM each time.
With `C[C@@H]1CN(c2ncc(C[C@H](O)CO)cc2F)CCN1C(=O)Nc1nc2ccc(F)cc2s1` [AGZ], the IC50 in experiment [1] (setting [3]) and in experiment [2] (setting [4]) was ≤ 50 nM each time.
In the case of `Cc1cc(NC(=O)N2CC=C(c3ncc(C[C@@H](O)CO)cc3Cl)CC2)ccc1C(F)(F)F` [drawing 501], the IC50 in experiment [2] (setting [5]) turned out to be 40 nM.
In the case of `C[C@H]1CN(c2ncc(C[C@@H](O)CO)cc2F)CCN1C(=O)Nc1nc2cc(F)c(F)cc2s1` [AEY], the IC50 in experiment [1] (setting [3]) and in experiment [2] (setting [4]) was ≤ 50 nM in each case.
`Cc1cc(NC(=O)N2CCC(F)(c3ncc(C[C@@H](O)CO)cc3F)CC2)ccc1C(F)(F)F` [ACO, (R)-4-(5-(2,3-dihydroxypropyl)-3-fluoropyridin-2-yl)-4-fluoro-N-(3-methyl-4-(trifluoromethyl)phenyl)piperidine-1-carboxamide]: the IC50 in experiment [1] (setting [3]) and in experiment [2] (setting [4]) was ≤ 50 nM throughout.
On to `Cc1ccc2nc(NC(=O)N3CCN(c4ncc(C[C@H](O)CO)cc4Cl)C[C@@H]3C)sc2c1` [AEC], for which the IC50 in experiment [1] (setting [3]) and in experiment [2] (setting [4]) was ≤ 50 nM in each case.
As for `Cc1cc(C[C@@H](O)CO)cnc1N1CCN(C(=O)Nc2nc3ccc(Cl)cc3s2)[C@H](C)C1` [ADJ, (R)-N-(6-chlorobenzo[d]thiazol-2-yl)-4-{5-[(R)-2,3-dihydroxypropyl]-3-methylpyridin-2-yl}-2-methylpiperazine-1-carboxamide], the IC50 in experiment [1] (setting [3]) and in experiment [2] (setting [4]) was ≤ 50 nM each time.
On to `C[C@H]1CN(c2ncc(C[C@H](O)CO)cc2C(F)(F)F)CCN1C(=O)Nc1nc2ccccc2s1` [AGY], for which the IC50 in experiment [1] (setting [3]) and in experiment [2] (setting [4]) was ≤ 50 nM each time.
On to `C[C@H]1CN(c2ncc(C[C@@H](O)CO)cc2F)CCN1C(=O)Nc1nc2ccc(Cl)cc2s1` [AEK], for which the IC50 in experiment [1] (setting [3]) and in experiment [2] (setting [4]) was ≤ 50 nM each time.
`C[C@@H]1CN(c2ncc(C[C@@H](O)CO)cc2F)CCN1C(=O)Nc1nc2ccc(Cl)cc2s1` [drawing 500]: in experiment [2] (setting [5]), the IC50 amounted to 8 nM.
`C[C@@H]1CN(c2ncc(C[C@@H](O)CO)cc2Cl)CCN1C(=O)Nc1nc2ccc(F)cc2s1` [ACU, (R)-4-(3-chloro-5-((R)-2,3-dihydroxypropyl)pyridin-2-yl)-N-(6-fluorobenzo[d]thiazol-2-yl)-2-methylpiperazine-1-carboxamide]: in experiment [2] (setting [4]), the IC50 was ≤ 50 nM.
For `Cc1cc(NC(=O)N2CCC(F)(c3ncc(C[C@H](O)CO)cc3F)CC2)ccc1OC(F)(F)F` [drawing 496], the 50% inhibitory concentration (IC50) in experiment [2] (setting [5]) stood at 46 nM.
On to `O=C(Nc1nc2cc(F)c(F)cc2s1)N1CCN(c2ncc(C[C@@H](O)CO)cc2F)CC1` [AFA], for which the IC50 in experiment [1] is ≤ 50 nM.
For the compound `O=C(Nc1nc2ccc(C(F)(F)F)cc2s1)N1CCC(F)(c2ncc([C@H](O)[C@H](O)CO)cc2Cl)CC1`, the IC50 in experiment [1] (TRPV1/CHO cells, pH 5.0-5.1, compounds of the invention, read-out: TRPV1 IC50 Potency (pH-Based Assay), Compound IC50) is 171 nM.
`C[C@H]1CN(C(=O)Nc2nc3cc(F)c(F)cc3s2)CCN1c1ncc(C[C@H](O)CO)cc1F` [AGL]: the IC50 in experiment [1] (setting [3]) is ≤ 50 nM.
Turning to `C[C@@H]1CN(c2ncc(C[C@H](O)CO)cc2F)CCN1C(=O)Nc1nc2ccccc2s1` [AGX], in experiment [1] (setting [3]), the half-maximal inhibitory concentration (IC50) was ≤ 50 nM.
